The test system of series [1] is ANGPTL3 mRNA. The series is described as follows: Example 12: liver ANGPTL3 mRNA by RT-qPCR in LDLR knockout mice. Conditions: for Avg Relative ANGPTL3 mRNA, Normalized to Control: normalized to Group 1 day 15. Type of series: in vivo, LDLR KO mice. An excerpt: To evaluate the effect of RNAi agent administration in a disease model, mice having a genetic mutation for the LDL receptor (referred to herein as LDLR KO mice) were commercially obtained (The Jackson Laboratory). The LDLR KO mice are homozygous for the Ldlr^tm1Her mutation, and have elevated serum cholesterol levels, particularly when placed on a high fat diet. For three weeks prior to the onset of the study, thirty-nine (39) LDLR KO mice were placed on a high fat diet (Teklad Custom Diets TD.88137). An additional eight (8) LDLR KO mice were placed on a normal chow diet over the same three-week period. Pre-dose serum samples were taken on day −15 and day −1 after a four hour fast. At day 1, each mouse was given a single subcutaneous administration of 200 μl/30 g animal body weight containing the respective mg/kg dose of an ANGPTL3 RNAi agent in D5W (dextrose in 5% water), control (D5W) with no RNAi agent, or a control RNAi agent that included a nucleotide sequence designed to target the Hepatitis B Virus (HBV) genome. A second injection of the same formulation was administered to the animals on day 29. The dosing regimen for the study is recited in the following Table 60:
Each mouse remained on its respective diet through the duration of study. The RNAi agent tested (AD05488) included a modified sequence and an N-acetyl-galactosamine-containing targeting ligand conjugated to the 5′ terminal end of the sense strand. (See Tables 3, […] modified sequences and targeting ligand structures). The injections were performed between the skin and muscle (i.e. subcutaneous injections) into the loose skin over the neck and shoulder area. Serum was collected on days 8, 15, 22, 29 (pre-second dose), 36, 43, 50, and 57. LDLR KO mice were fasted for four hours prior to each collection. On day 15, four (4) LDLR KO mice from Groups 1, 2, and 3 (i.e., the groups being administered the high fat “Western” diet) were sacrificed after serum collection, and on day 29, an additional four (4) LDLR KO mice from Groups 1, 2, and 3 were sacrificed after serum collection, for the purpose of performing mRNA assessments.
Additionally, ANGPTL3 mRNA levels were also assessed. On day 15, four (4) mice were sacrificed from each of Groups 1, 2, and 3. On day 29, an additional four (4) mice were sacrificed from each of Groups 1, 2, and 3. On day 57, all remaining animals from all Groups were sacrificed. At sacrifice, livers were harvested, and approximately 100 mg liver samples from the median lobes were collected and snap-frozen in liquid nitrogen for RNA isolation. Levels of ANGPTL3 mRNA in the mice livers were then measured by RT-qPCR, and normalized to the mRNA levels of the mice in Group 1 (high fat “Western” diet; D5W administration; day 15 sacrifice), the results of which are set forth in the following Table 66: […]
(In general: In qPCR the cycle at which signal appears reflects the starting amount.)

Series [2] has as its system ANGPTL3 gene. Kind of series: Example 10: serum HDL in mice. Conditions: 0.5 mg/kg single SC injection day 1, female C57bl/6 mice, n=3, ratio to D5W control. Type of series: in vivo. The protocol: To assess the in vivo activity of further ANGPTL3 RNAi agents that are designed to target position 304 on the ANGPTL3 gene, six- to eight-week-old female C57bl/6 mice were used. Pre-dose serum samples were taken at day −1 after a four hour fast. At day 1, each mouse was given a single subcutaneous administration of 200 μl containing 0.5 mg/kg (mpk) of an ANGPTL3 RNAi agent in D5W (dextrose in 5% water), or control (D5W) with no RNAi agent, according to the dosing groups recited in Table 47.
Each of the RNAi agents included a modified sequence and an N-acetyl-galactosamine-containing targeting ligand conjugated to the 5′ terminal end of the sense strand. (See Tables 3, 4, and 5 for modified sequences and targeting ligand structures). As noted above, each of the ANGPTL3 RNAi agents dosed in this study included nucleotide sequences designed to target the ANGPTL3 gene at position 304. The injections were performed between the skin and muscle (i.e. subcutaneous injections) into the loose skin over the neck and shoulder area. Three (3) mice in each group were tested (n=3). Serum was collected on days 8, 15, 22, 29, and for some groups on day 36 (i.e., Groups 1, 2, and 9-13 only). Mice were fasted for four hours prior to each collection. ANGPTL3 protein levels in serum were measured by ELISA assay (R&D Systems), according to the manufacturer's recommendations. Triglycerides, total cholesterol, high-density lipoprotein (HDL), and low-density lipoprotein (LDL) in serum were measured on a Cobas® Integra 400 (Roche Diagnostics), according to the manufacturer's recommendations.
The ANGPTL3 protein levels, triglyceride levels, total cholesterol levels, HDL levels, and LDL levels for each animal were normalized. For normalization, the level of ANGPTL3 protein, triglyceride, HDL, and total cholesterol, respectively, for each animal at a time point, was divided by the pre-treatment level of expression in that animal (in this case at day −1) to determine the ratio of expression “normalized to pre-treatment.” Expression at a specific time point was then normalized to the D5W control group by dividing the “normalized to pre-treatment” ratio for an individual animal by the mean “normalized to pretreatment” ratio of all mice in the D5W control group.

In the oligonucleotide strings, read from the 5' end, every base follows the letter of its sugar. An asterisk marks phosphorothioate; unmarked linkages are phosphodiester. Other units and linkages are bracketed, terminal groups are in braces. A string of capitals states the bases alone. {NAG37} = tridentate N-acetyl-galactosamine targeting ligand, structure (NAG37)s; [invAb] = inverted abasic unit; m = 2'-O-methyl; f = 2'-fluoro

We go through one substance from patent publication US12729377B2, “RNAi agents and compositions for inhibiting expression of angiopoietin-like 3 (ANGPTL3), and methods of use” (Arrowhead Pharmaceuticals, Inc., priority 2017, dated 2026).

As to “AD05488: RNAi agent duplex: antisense AM07235-AS, sense AM07234-SS (antisense mU*fA*mC*fUmGfAmUfCmAfAmAfUmAfUmGfUmUfGmAfG*mC; sense {NAG37}*[invAb]*mGmCmUmCmAmAmCmAfUfAfUmUmUmGmAmUmCmAmGmUmA*[invAb])”, the “Avg Relative ANGPTL3 mRNA, Normalized to Control” value in series [1] (3.0 mg/kg days 1 and 29, high fat diet, day 57 sacrifice) worked out at 0.024; in series [1] (3.0 mg/kg days 1 and 29, normal chow, day 57 sacrifice), 0.060; in series [1] (3.0 mg/kg, high fat diet, day 15 sacrifice) it was 0.019; in series [1] (3.0 mg/kg, high fat diet, day 29 sacrifice) it was 0.032. Also, the “reduction in ANGPTL3 mRNA levels” value in series [1] (both high fat Western diet and normal chow-fed diet, LDLR KO mice) is given as “significant reduction”. The “Average HDL Normalized to Pre-Treatment and Control” value in series [2] (Day 8) is 0.648; in series [2] (Day 15), 0.807; in series [2] (Day 22), 0.733; in series [2] (Day 29), 0.746; in series [2] (Day 36), 0.816.
